Assay results reported in patent publication US20110201679A1, “Use of Tocotrienols for Elevating IKBKAP Gene Expression and Treating Neurodegenerative Diseases or Disorders” (priority 2004, published 2011).
“Also recorded” adds a separate entry of the source.

What was measured:
Format in all cases: cell-based, human
IKAP transcript [1] = experiment: Real-time RT-PCR analysis of IKAP RNA in FD-derived and normal fibroblast cells; conditions: for effect on cellular levels of IKAP transcripts: 48 h, 25 and 2.5 μg/ml
Protocol: In order to identify agents that could modulate the level of the wild type IKAP transcript produced in FD-derived cells, either by increasing transcription or modulating splicing, FD-derived fibroblast cells (GM00850) were treated with a variety of biological agents. RNA was isolated from the treated cells and was subjected to real-time RT-PCR analysis using primers specific for the wild-type IKAP transcript. More specifically, FD-derived fibroblast cells, seeded in 96-well plates at a concentration of 4000 cells/well for at least one day prior to treatment, were treated in triplicate for approximately 48 h unless noted otherwise. After treatment, the cells were washed once with PBS and then lysed in 50 μl of Cell-to-cDNA lysis buffer (Ambion) at 75° C. for 12 min. After one freeze-thaw cycle, 4 μl of lysate was used in 20 μl RT-PCRs. The Quantitect SYBR Green RT-PCR Kit (Qiagen) was used for real-time RT-PCR analysis of the relative quantities of the exon 20-containing transcript (wild-type), the exon 20-lacking transcript (mutant), as well as an exon 34-35-containing transcript that is unaffected by the FD-causing mutation (total). An ABI PRISM 7000 Sequence Detection System (Applied Biosystems), programmed as follows, was used to perform the real-time RT-PCR and analysis: 50° C. for 30 min and 95° C. for 15 min for one cycle, followed by 40 cycles of 94° C. for 15 s, 57-60° C. for 30 s, and 72° C. for 30 s. To present relative amounts of PCR product obtained, results were expressed as changes in the threshold cycle (ΔCT) compared to untreated cells. The threshold cycle refers to the PCR cycle at which the fluorescence of the PCR is increased to a calculated level above background. A change of 1.0 in CT, assuming 100% PCR efficiency, would reflect a twofold change in the starting amount of the RNA template that was amplified.
To control for the amount of RNA present in the samples, RT-PCR amplification of ribosomal 18S RNA was performed on all cell lysates. […] For this analysis, TaqMan Ribosomal RNA Control Reagents were used with the TaqMan EZ RT-PCR Kit (Applied Biosystems) as per the manufacturer's protocol.
To characterize the kinetics of the δ-tocotrienol-mediated accumulation of the IKAP transcript, FD-derived (GM00850 and GM04663) and normal (GM02912) fibroblast cells were exposed to 12.5 μg/ml of δ-tocotrienol for periods up to 48 h and the amount of the IKAP-encoding transcripts was determined by real-time RT-PCR, as described above.
To evaluate the IKAP mRNA-inducing ability of other molecules in the vitamin E family that are related to […], GM00850, GM04663, and GM02912 cells were incubated in the absence or presence of 25 and 2.5 μg/ml of either α, β, γ, or δ tocopherols or tocotrienols.
As described above, α, β, γ or δ tocopherol alone had no impact on IKAP mRNA levels when FD-derived or normal fibroblasts were treated for 48 hr. To determine if α-tocopherol in combination with tocotrienols would have an impact on IKAP mRNA levels, FD-derived GM00850 and GM04663 fibroblasts were treated for 48 hr with either 25 or 12.5 μg/mL of a mixture of α, β, γ and δ tocotrienols alone or in combination with 50 μg/mL of α-tocopherol.

[2] = test system: IKBKAP gene transcription; experiment: Nuclear run-on transcription assay in GM04663 cells; conditions: 48 h, 12.5 μg/ml, versus untreated cells
Protocol: The δ-tocotrienol-mediated accumulation of the IKAP-encoding transcripts was either the result of an elevation in the level of gene transcription or the stabilization of this RNA. To distinguish between these possibilities, nuclear run-on transcription assays were performed on cells incubated in either the presence or absence of δ-tocotrienol. Isolation of nuclei and transcription in the presence of [α-^32P]UTP (Perkin Elmer Life Sciences) were performed essentially as described by B. Y. Rubin (J. Biol. Chem. 266: 24245-24248 (1991)). Briefly, confluent monolayers of GM04663 cells in 175 cm^2 flasks were incubated for 48 h in the presence or absence of 12.5 μg/ml δ-tocotrienol. The cells were then lysed by Dounce homogenization and the resultant nuclei were incubated with 250 μCi [α-^32P]UTP. The radiolabeled RNA was treated with DNase, purified with Trizol LS reagent (Invitrogen), and then hybridized to 5 μg of plasmid containing either a full-length cDNA encoding IKAP or a cDNA encoding GAPDH that was immobilized on Nytran Super-Charge nylon membrane (Schleicher & Schuell) using a spot-blot apparatus. The amount of radiolabeled RNA bound was detected by autoradiography and then quantitated by densitometric scanning of the X-ray film.

full-length IKAP = experiment: Western blot analysis of full-length IKAP in fibroblast cells; conditions: 12.5 μg/ml
Protocol: Western blot analysis was performed on cellular extracts prepared from δ-tocotrienol-treated FD-derived (GM00850 and GM04663) and normal (GM02912) fibroblast cells, using a monoclonal antibody generated against a peptide corresponding to exons 23-28 of IKAP that only recognize the full-length IKAP. Basically, cells treated for 48 h with 12.5 μg/ml of δ-tocotrienol were washed twice with PBS and lysed in 0.5 M Tris-HCl, pH 6.8, containing 1.4% SDS. Western blot analysis was performed essentially as described by B. Y. Rubin (Proc. Natl. Acad. Sci. USA 82: 6637-6641 (1985)). Essentially, equal amounts of protein fractionated on a 7% NuPAGE Tris-Acetate Gel (Invitrogen) were blotted onto nitrocellulose (Bio-Rad) and probed overnight with a monoclonal anti-body (BD Biosciences) directed against the carboxyl end (exons 23-28) of IKAP. The blot was then washed and probed with a goat anti-mouse antibody conjugated to alkaline phosphatase (Promega), followed by detection with Western Blue Substrate solution (Promega).

IKAP transcript [3] = experiment: Real-time RT-PCR analysis of wild-type IKAP RNA in LA1-55n cells; conditions: LA1-55n neuroblastoma cells, 48 h, varying concentrations
Protocol: FIG. 7. Real-time RT-PCR analysis of wild-type IKAP RNA in LA1-55n cells. cDNA was prepared from LA1-55n cells incubated for 48 h in the absence or presence of varying concentrations of δ-tocotrienol. The relative amounts of IKAP RNA present in these cells were determined by real-time RT-PCR. The results presented represent mean values obtained in three experiments, each done in triplicate.
The response of the neuroblastoma-derived LA1-55n cell line, which has characteristics of sympathetic neurons (J. L. Biedler, et al., “Human Neuroblastoma Cell Differentiation, in: D. Raghavan, et al., Principles and Practice of Genitourinary Oncology, Lippincott-Raven, pp. 1053-1061, (1997); D. L. Lazarova, et al., “A Neuronal-Specific RNA-Binding Protein, is a Putative Regulator of N-myc pre-mRNA Processing/Stability in Malignant Human Neuroblasts”, Oncogene 18: 2703-2710 (1999)), to treatment with […] was examined.

[4] = GM00850, GM04663 and GM02912 cells

## Cc1c(C)c2c(c(C)c1O)CC[C@@](C)(CCC[C@H](C)CCC[C@H](C)CCCC(C)C)O2 [α-tocopherol, α-Tocopherol]
IKAP transcript [1]; [4]
  effect on cellular levels of IKAP transcripts: no impact; also recorded: no effect
IKAP transcript [1]; GM00850 and GM04663, 48 hr, 50 μg/mL α-tocopherol with 25 or 12.5 μg/mL mixture of α, β, γ and δ tocotrienols, versus tocotrienol-only treated cells
  enhancement of tocotrienol-induced increase in IKAP mRNA: ≤ 40%
IKAP transcript [1]; GM00850 and GM04663 fibroblasts, 48 hr, 50 μg/mL α-tocopherol alone
  effect on IKAP mRNA levels, alone: no effect

## CC(C)=CCC/C(C)=C/CC/C(C)=C/CC[C@]1(C)CCc2c(C)c(O)c(C)c(C)c2O1 [α-tocotrienol, α-Tocotrienol]
IKAP transcript [1]; [4]
  effect on cellular levels of IKAP transcripts: as much as sixfold

## Cc1cc(O)c(C)c2c1O[C@](C)(CCC[C@H](C)CCC[C@H](C)CCCC(C)C)CC2 [β-tocopherol, β-Tocopherol]
IKAP transcript [1]; [4]
  effect on cellular levels of IKAP transcripts: no impact; also recorded: no effect

## CC(C)=CCC/C(C)=C/CC/C(C)=C/CC[C@]1(C)CCc2c(C)c(O)cc(C)c2O1 [β-tocotrienol, β-Tocotrienol]
IKAP transcript [1]; [4]
  effect on cellular levels of IKAP transcripts: as much as sixfold

## Cc1c(O)cc2c(c1C)O[C@](C)(CCC[C@H](C)CCC[C@H](C)CCCC(C)C)CC2 [γ-tocopherol, γ-Tocopherol]
IKAP transcript [1]; [4]
  effect on cellular levels of IKAP transcripts: no impact; also recorded: no effect

## CC(C)=CCC/C(C)=C/CC/C(C)=C/CC[C@]1(C)CCc2cc(O)c(C)c(C)c2O1 [γ-tocotrienol, γ-Tocotrienol]
IKAP transcript [1]; [4]
  effect on cellular levels of IKAP transcripts: as much as sixfold

## Cc1cc(O)cc2c1O[C@](C)(CCC[C@H](C)CCC[C@H](C)CCCC(C)C)CC2 [δ-tocopherol, δ-Tocopherol]
IKAP transcript [1]; [4]
  effect on cellular levels of IKAP transcripts: no impact; also recorded: no effect

## CC(C)=CCC/C(C)=C/CC/C(C)=C/CC[C@]1(C)CCc2cc(O)cc(C)c2O1 [δ-tocotrienol, δ-Tocotrienol]
IKAP transcript [1]; FD-derived fibroblast GM00850, about 48 h, varying concentrations
  level of wild-type IKAP transcript: concentration-dependent elevation
IKAP transcript [1]; GM00850, 48 h, highest concentration tested
  change in threshold cycle (ΔCT) relative to untreated cells: 2.5
IKAP transcript [1]; GM00850, 48 h, highest concentration tested, relative to untreated cells
  increase in levels of truncated and wild-type IKAP transcripts: as much as a sixfold increase
IKAP transcript [1]; GM00850, GM04663 and GM02912 cells, 12.5 μg/ml, 24 h after start of treatment, versus untreated cells, accumulation continues through 48 h
  levels of IKAP-encoding transcripts over time: significantly elevated levels
IKAP transcript [1]; [4]
  effect on cellular levels of IKAP transcripts: as much as sixfold
[2]
  increase in IKBKAP gene transcription: approximately 3.5 fold
full-length IKAP; FD-derived fibroblasts GM00850 and GM04663, 48 h, on average
  increase in amount of full-length IKAP produced: approximate two-fold increase
full-length IKAP; treated FD-derived cells GM00850 and GM04663, 48 h, untreated FD cells 26-30%
  IKAP level as percentage of the level present in untreated normal (GM02912) cells: 48-65%
IKAP transcript [3]
  increase in IKAP transcript levels: almost a twofold increase
